In ChEMBL document CHEMBL3880385, “2-Iminoisoindolinone derivatives as thrombin receptor antagonists” (2011):
Counter-ions that a name gives are not always drawn.

Test: Antiproliferative activity against thrombin-induced […] smooth muscle cells isolated from Sprague-Dawley rat aorta after 2 days by MTT assay
Format: functional
Settings: VSMC, 48 h

Row | Compound | IC50 [nM]
1 | CCOc1cc2c(c(F)c1OCC)C(=N)N(CC(=O)c1cc(N3CCC(O)CC3)c(OC)c(C(C)(C)C)c1)C2 | 23
2 | CCOc1cc2c(c(F)c1OCC)C(=N)N(CC(=O)c1cc(N3CCN(CC#N)CC3)c(OC)c(C(C)(C)C)c1)C2 | 75
3 | CCOc1cc2c(c(F)c1OCC)C(=N)N(CC(=O)c1cc(N3CCN(CC(=O)O)CC3)c(OC)c(C(C)(C)C)c1)C2 | 150
4 | CCOc1cc2c(c(F)c1OCC)C(=N)N(CC(=O)c1cc(N3CCOCC3)c(OC)c(C(C)(C)C)c1)C2 [ATOPAXAR HYDROBROMIDE] | 32
5 | CCOc1cc2c(c(F)c1OCC)C(=N)N(CC(=O)c1cc(N3CCNCC3)c(OC)c(C(C)(C)C)c1)C2 | 52
